Experimental data published in patent US20240251792A1, “WEED CONTROL METHOD” (SYNGENTA CROP PROTECTION AG, priority 2021, published 2024).
Like-named read-outs stand apart in the source and are kept apart here.

Key:
Type in all cases: in vivo
weeds and/or crops = experiment: Post-emergence biological efficacy (Table 4); conditions: 1000 g/ha, evaluated after 13 days; for pest or weed control at 1000 g/ha: 312 h
Protocol: (§1) Seeds of weeds and/or crops were sown in standard soil in pots. After cultivation for 14 days under controlled conditions in a glasshouse (at 24/19° C., day/night; 16 hours light), the plants were sprayed with an aqueous spray solution derived from the formulation of the technical active ingredient in a small amount of acetone and a special solvent and emulsifier mixture referred to as F50 (11.12% Emulsogen EL360 TM+44.44% N-methylpyrrolidone+44.44% Dowanol DPM glycol ether), to create a 50 g/l solution which was then diluted using 0.2% Genapol X080 as diluent to give the desired final dose of test compound.
(§2) The test plants were then grown under controlled conditions in the glasshouse (at 24/18° C., day/night; 15 hours light; 50% humidity) and watered twice daily. After 13 days the test was evaluated (100=total damage to plant; 0=no damage to plant).

AMARE = experiment: Pre-emergence biological efficacy (Table 3); conditions: 1000 g/ha, after 13 days; for pest or weed control at 1000 g/ha: Amaranthus retroflexus, 312 h, read-out: evaluation (100=total damage to plant; 0=no damage to plant)
Protocol: as §1, with “one day” for “14 days”, “AMA” for “F50”
as §2

ABUTH = experiment: Pre-emergence biological efficacy (Table 3); conditions: after 13 days; for pest or weed control at 1000 g/ha: Abutilon theophrasti, 312 h, read-out: evaluation (100=total damage to plant; 0=no damage to plant)
Protocol: as §1, with “one day” for “14 days”, “AMA” for “F50”
as §2

IPOHE = experiment: Pre-emergence biological efficacy (Table 3); conditions: 1000 g/ha, after 13 days; for pest or weed control at 1000 g/ha: Ipomoea hederacea, 312 h, read-out: evaluation (100=total damage to plant; 0=no damage to plant)
Protocol: as §1, with “one day” for “14 days”, “AMA” for “F50”
as §2

STEME = experiment: Pre-emergence biological efficacy (Table 3); conditions: after 13 days; for pest or weed control at 1000 g/ha: 312 h, read-out: evaluation (100=total damage to plant; 0=no damage to plant)
Protocol: as §1, with “one day” for “14 days”, “AMA” for “F50”
as §2

ZEAMX = experiment: Pre-emergence biological efficacy (Table 3); conditions: 1000 g/ha, after 13 days; for plant injury at 1000 g/ha: 312 h, read-out: evaluation (100=total damage to plant; 0=no damage to plant)
Protocol: as §1, with “one day” for “14 days”, “AMA” for “F50”
as §2

ECHCG = experiment: Pre-emergence biological efficacy (Table 3); conditions: Echinochloa crus-galli, 312 h, 1000 g/ha, after 13 days, read-out: evaluation (100=total damage to plant; 0=no damage to plant)
Protocol: as §1, with “one day” for “14 days”, “AMA” for “F50”
as §2

[1] = STEME, read-out: damage to plant STEME (100=total damage; 0=no damage)
[2] = ZEAMX, read-out: damage to plant ZEAMX (100=total damage; 0=no damage)
[3] = Abutilon theophrasti, ABUTH, read-out: damage to plant ABUTH (100=total damage; 0=no damage)
[4] = Amaranthus retroflexus, AMARE, read-out: damage to plant AMARE (100=total damage; 0=no damage)
[5] = Ipomoea hederacea, IPOHE, read-out: damage to plant IPOHE (100=total damage; 0=no damage)
[6] = Echinochloa crus-galli, ECHCG, read-out: damage to plant ECHCG (100=total damage; 0=no damage)

SMILES	pest or weed control at 1000 g/ha (weeds and/or crops; [1]) [%]	pest or weed control at 1000 g/ha (weeds and/or crops; [2]) [%]	pest or weed control at 1000 g/ha (weeds and/or crops; [3]) [%]	pest or weed control at 1000 g/ha (weeds and/or crops; [4]) [%]	pest or weed control at 1000 g/ha (weeds and/or crops; [5]) [%]	pest or weed control at 1000 g/ha (AMARE) [%]	pest or weed control at 1000 g/ha (ABUTH) [%]	pest or weed control at 1000 g/ha (IPOHE) [%]	pest or weed control at 1000 g/ha (STEME) [%]	plant injury at 1000 g/ha (ZEAMX) [%]	further results
COc1c(Cl)ccc(F)c1C(F)(F)C(=O)O [Compound 7-325, 2-(3-Chloro-6-fluoro-2-methoxyphenyl)-2,2-difluoroacetic acid]	60	20	50	60	50	50	20	50	30	10	–
C#Cc1cccc(C(F)(F)C(=O)O)c1Cl [Compound 1-208, 2-(2-Chloro-3-ethynyl-phenyl)-2,2-difluoro-acetic acid]	90	70	90	90	90	90	100	90	100	80	–
O=C(O)C(F)(F)c1cc(-c2ccc(F)cc2)ccc1Cl [Compound 1-64, 2-(4-Chloro-4′-fluoro-[1,1′-biphenyl]-3-yl)-2,2-difluoroacetic acid]	0	40	0	50	50	0	0	10	0	10	–
Nc1c(Cl)cc(Cl)cc1C(F)(F)C(=O)O [Compound 7-253, Ammonium 2-(2-amino-3,5-dichloro-phenyl)-2,2-difluoro-acetate]	60	10	40	60	70	0	0	0	–	–	pest or weed control at 1000 g/ha (weeds and/or crops; [6]): 0%; pest or weed control at 1000 g/ha (ECHCG): 0%
O=C(O)C(F)(F)c1cccc2cccnc12 [Compound 1-403, 2,2-Difluoro-2-(quinoline-8-yl)acetic acid]	80	20	80	90	70	80	80	90	70	30	–
O=C(O)C(F)(F)c1cccc(O)c1 [Compound 1-5, 2,2-Difluoro-2-(3-hydroxyphenyl)acetic acid]	20	10	–	20	20	10	10	20	20	10	pest or weed control at 1000 g/ha (weeds and/or crops; [6]): 10%
O=C(O)C(F)(F)c1cc(O)ccc1Cl [Compound 1-61, 2-(2-Chloro-5-hydroxyphenyl)-2,2-difluoroacetic acid]	10	10	10	10	20	20	0	0	0	0	–
CCc1cccc(C(F)(F)C(=O)O)c1Cl [Compound 1-196, 2-(2-Chloro-3-ethyl-phenyl)-2,2-difluoro-acetic acid]	90	10	80	50	70	40	70	70	80	20	–
O=C(O)C(F)(F)c1cc(-c2ccc(F)cc2)cc(Cl)c1Cl [Compound 1-78, 2-(4,5-Dichloro-4′-fluoro-[1,1′-biphenyl]-3-yl)-2,2-difluoroacetic acid]	0	30	10	50	40	0	–	0	0	0	–
CSc1c(C(F)(F)C(=O)O)ccc(Br)c1Cl [Compound 1-359, 2-(4-Bromo-3-chloro-2-methylsulfanyl-phenyl)-2,2-difluoro-acetic acid]	0	20	10	10	10	10	0	0	0	10	–
C=Cc1cccc(C(F)(F)C(=O)O)c1Cl [Compound 1-207, 2-(2-Chloro-3-vinyl-phenyl)-2,2-difluoro-acetic acid]	90	30	80	70	80	80	90	90	90	30	–
Nc1cc(Cl)c(Cl)c(C(F)(F)C(=O)O)c1 [Compound 1-77, 3-[carboxy(difluoro)methyl]-4,5-dichloroanilinium]	30	10	–	60	10	10	10	30	10	0	pest or weed control at 1000 g/ha (weeds and/or crops; [6]): 0%
Nc1ccc(Cl)cc1C(F)(F)C(=O)[O-].[Li+] [Compound 5-251, Lithium;2-(2-amino-5-chloro-phenyl)-2,2-difluoro-acetate]	–	–	–	–	–	–	–	–	–	–	damage to plant ABUTH (100=total damage; 0=no damage) (weeds and/or crops; ABUTH): 20; damage to plant AMARE (100=total damage; 0=no damage) (weeds and/or crops; AMARE): 40; damage to plant ECHCG (100=total damage; 0=no damage) (weeds and/or crops; ECHCG): 0; damage to plant IPOHE (100=total damage; 0=no damage) (weeds and/or crops; IPOHE): 20; damage to plant STEME (100=total damage; 0=no damage) (weeds and/or crops; STEME): 20; damage to plant ZEAMX (100=total damage; 0=no damage) (weeds and/or crops; ZEAMX): 0; evaluation (100=total damage to plant; 0=no damage to plant) (AMARE): 20; evaluation (100=total damage to plant; 0=no damage to plant) (ABUTH; 1000 g/ha): 10; evaluation (100=total damage to plant; 0=no damage to plant) (IPOHE): 0; evaluation (100=total damage to plant; 0=no damage to plant) (STEME; 1000 g/ha): 10; evaluation (100=total damage to plant; 0=no damage to plant) (ZEAMX): 0
COc1c(Cl)cc(Cl)c(Cl)c1C(F)(F)C(=O)O [Compound 1-82, 2,2-Difluoro-2-(2,3,5-trichloro-6-methoxy-phenyl)acetic acid]	10	20	20	60	30	60	–	20	30	0	–
